Source: patent US20250034134A1, “15-PGDH INHIBITOR AND USE THEREOF” (Wuhan Humanwell Innovative Drug Research and Development …, priority 2021, published 2025)

Experiments:
15-PGDH = 15-PGDH (Homo sapiens (Human), UniProt P15428); assay: Inhibition test of compounds on 15-PGDH enzyme; format: biochemical
Method: 15-PGDH (R&D Systems, Cat. No.: 5660-DH-010) was prepared to twice the final concentration, i.e., 30 nM, using Assay Buffer (50 mM Tris-HCl, pH 7.5, 0.01vol % Tween 20). The obtained mixture was then added to a 384-well white plate (Cisbio Bioassays, Cat. No. 66PL384025) at 8 μL/well. Negative control wells (with Assay Buffer only and without enzyme) were set. The compound was then prepared to 4 times the final concentration using Assay Buffer, i.e., diluted 3-fold to 10 concentrations starting from 4000 nM. The obtained mixture was added to the above white plate at 4 μL/well, mixed well, centrifuged at 1000 rpm for 1 minute, and incubated at 25° C. for 10 minutes. Both positive control wells (with 15-PGDH only) and negative control wells (without 15-PGDH) were set. A mixture of NAD^+(Select, Cat. No. S2518) and PGE2 (R&D Systems, Cat. No.: 2296/10) was then prepared using Assay Buffer. NAD^+ and PGE2 were prepared to four times their final concentrations, i.e., 2 mM and 0.12 mM, respectively, using Assay Buffer. The obtained mixture was then added to the above white plate at 4 μL/well, mixed well, centrifuged at 1000 rpm for 1 minute, and incubated at 25° C. for 30 minutes for the reaction. The fluorescence was detected at an excitation wavelength of 340 nm and an emission wavelength of 485 nm using instrument TECAN SPARK 20M. The IC50 value was calculated using four-parameter fitting with GraphPad Prism 8.0.

A549 cells = assay: Effect of compounds on PGE2 levels in A549 cell supernatant; format: cell-based; conditions: 20 nM compound, about 12 hours, after IL-10 stimulation; ELISA
Method: A549 cells (Procell, Wuhan) were cultured in F12K+10% FBS. The cells with good status in log phase were selected for the experiment, digested, counted, and inoculated into a 24-well plate at 8000 cells per well. The cells were cultured in a 37° C., 5% CO2 incubator overnight. After adherence, the cells were transferred to a culture medium containing 0.5% FBS and cultured for about 10 hours. IL-10 was added to each well (final concentration of 20 ng/mL, 1 mL per well), and a control group (without IL-10) was set up. After stimulation with IL-10 for about 24 hours, the cell culture medium of each well was aspirated and discarded, and the wells were gently washed with fresh culture medium containing 0.5% FBS. 400 μL of culture medium containing the compound of different concentrations (20 nM and 2500 nM) was added to each well and cultured for about 12 hours. The supernatant was collected and PGE2 was detected using ELISA kit (R&D Systems, Cat. No.: KGE004B).

Chain of 15-PGDH (P15428 whole entry): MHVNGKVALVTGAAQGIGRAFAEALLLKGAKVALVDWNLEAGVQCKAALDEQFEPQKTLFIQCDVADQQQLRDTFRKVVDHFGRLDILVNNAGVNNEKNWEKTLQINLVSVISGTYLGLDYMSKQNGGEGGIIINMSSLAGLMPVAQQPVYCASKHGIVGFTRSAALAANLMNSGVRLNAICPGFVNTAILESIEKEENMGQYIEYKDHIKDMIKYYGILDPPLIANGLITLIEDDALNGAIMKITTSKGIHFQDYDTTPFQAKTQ

SMILES | IC50 (15-PGDH) | Fold increase of PGE2 in A549 cell supernatant (A549 cells)
Cn1ccc2cc(N3CC4CC4c4cc(C(=O)N5CCC(F)(F)CC5)cnc43)ccc2c1=O (single isomer, unassigned) [Compound I-12A] | 1.52 nM | 
Cn1ccc2cc(N3CC4CC4c4cc(C(=O)N5CCC(F)(F)CC5)cnc43)ccc2c1=O (single isomer, unassigned) [Compound I-12B] | 7.42 nM | 
[2H]C([2H])([2H])n1nc2cc(N3CC4CC4c4cc(C(=O)N5CCC(F)(F)CC5)cnc43)ccn2c1=O (single isomer, unassigned) [Compound I-25A] | 15.8 nM | 
[2H]C([2H])([2H])n1nc2cc(N3CC4CC4c4cc(C(=O)N5CCC(F)(F)CC5)cnc43)ccn2c1=O (single isomer, unassigned) [Compound I-25B] | 3.78 nM | 
CN1Cc2cc(N3CC4CC4c4cc(C(=O)N5CCC(F)(F)CC5)cnc43)ccc2C1=O (stereo not shown) [Compound I-1, 5-(6-(4,4-difluoropiperidine-1-carbonyl)-1,1a,2,7b-tetrahydro-3H-cyclopropa[c][1,8]naphthyridin-3-yl)-2-methylisoindolin-1-one] | 4.3 nM | 4.3
CN1Cc2cc(N3CC4CC4c4cc(C(=O)N5CCC(F)(F)CC5)cnc43)cnc2C1=O (stereo not shown) [Compound I-2, 3-(6-(4,4-difluoropiperidine-1-carbonyl)-1,1a,2,7b-tetrahydro-3H-cyclopropa[c][1,8]naphthyridin-3-yl)-6-methyl-5,6-dihydro-7H-pyrrolo[3,4-b]pyridin-7-one] | 5.15 nM | 5.23
CNC(=O)c1ccc(N2CC3CC3c3cc(C(=O)N4CCC(F)(F)CC4)cnc32)cc1F (stereo not shown) [Compound I-9, 4-(6-(4,4-difluoropiperidine-1-carbonyl)-1,1a,2,7b-tetrahydro-3H-cyclopropa[c][1,8]naphthyridin-3-yl)-2-fluoro-N-methylbenzamide] | 9.51 nM | 
N#Cc1ccc(N2CC3CC3c3cc(C(=O)N4CCC(F)(F)CC4)cnc32)cc1 (stereo not shown) [Compound I-11, 4-(6-(4,4-difluoropiperidine-1-carbonyl)-1,1a,2,7b-tetrahydro-3H-cyclopropa[c][1,8]naphthyridin-3-yl)benzonitrile] | 3.8 nM | 1.88
Cn1ncc2cc(N3CC4CC4c4cc(C(=O)N5CCC(F)(F)CC5)ccc43)ccc2c1=O (stereo not shown) [Compound I-13, 6-(6-(4,4-difluoropiperidine-1-carbonyl)-1,1a,2,7b-tetrahydro-3H-cyclopropa[c]quinolin-3-yl)-2-methylphthalazin-1(2H)-one] | 4.03 nM | 6.1
Cn1ncc2cc(N3CC4CC4c4cc(C(=O)N5CCC(F)(F)CC5)ccc43)cnc2c1=O (stereo not shown) [Compound I-14, 3-(6-(4,4-difluoropiperidine-1-carbonyl)-1,1a,2,7b-tetrahydro-3H-cyclopropa[c]quinolin-3-yl)-7-methylpyrido[2,3-d]pyridazin-8(7H)-one] | 8.6 nM | 2.3
Cn1cnc2cc(N3CC4CC4c4cc(C(=O)N5CCC(F)(F)CC5)ccc43)cnc2c1=O (stereo not shown) [Compound I-15, 7-(6-(4,4-difluoropiperidine-1-carbonyl)-1,1a,2,7b-tetrahydro-3H-cyclopropa[c]quinolin-3-yl)-3-methylpyrido[3,2-d]pyrimidin-4(3H)-one] | 5.7 nM | 3.7
O=C(c1cnc2c(c1)C1CC1CN2c1ccn2ncnc2c1)N1CCC(F)(F)CC1 (stereo not shown) [Compound I-16, (3-([1,2,4]triazolo[1,5-a]pyridin-7-yl)-1a,2,3,7b-tetrahydro-1H-cyclopropa[c][1,8]naphthyridin-6-yl)(4,4-difluoropiperidin-1-yl)methanone] | 5.4 nM | 3.7
O=C(c1cnc2c(c1)C1CC1CN2c1ccn2cnnc2c1)N1CCC(F)(F)CC1 (stereo not shown) [Compound I-17, (3-([1,2,4]triazolo[4,3-a]pyridin-7-yl)-1a,2,3,7b-tetrahydro-1H-cyclopropa[c][1,8]naphthyridin-6-yl)(4,4-difluoropiperidin-1-yl)methanone] | 4.5 nM | 2.2
CN1Cc2cc(N3CC4CC4c4cc(C(=O)N5CCC(F)(F)CC5)cnc43)ncc2C1=O (stereo not shown) [Compound I-18, 6-(6-(4,4-difluoropiperidine-1-carbonyl)-1,1a,2,7b-tetrahydro-3H-cyclopropa[c][1,8]naphthyridin-3-yl)-2-methyl-1,2-dihydro-3H-pyrrolo[3,4-c]pyridin-3-one] | 20 nM | 
CN1C(=O)c2ncc(N3CC4CC4c4cc(C(=O)N5CCC(F)(F)CC5)cnc43)cc2C12CC2 (stereo not shown) [Compound I-19, 3′-(6-(4,4-difluoropiperidine-1-carbonyl)-1,1a,2,7b-tetrahydro-3H-cyclopropa[c][1,8]naphthyridin-3-yl)-6′-methylspiro[cyclopropane-1,5′-pyrrolo[3,4-b]pyridin]-7′(6′H)-one] | 3.72 nM | 4.72
Cn1nc2cc(N3CC4CC4c4cc(C(=O)N5CC(C)(F)C5)cnc43)ccn2c1=O (stereo not shown) [Compound I-20, 7-(6-(3-fluoro-3-methylazetidine-1-carbonyl)-1a,2-dihydro-1H-cyclopropa[c][1,8]naphthyridin-3(7bH)-yl)-2-methyl-[1,2,4]triazolo[4,3-a]pyridin-3(2H)-one] | 2.83 nM | 2.0
Cn1nc2cc(N3CC4CC4c4cc(C(=O)N5CCC(F)(F)C5)cnc43)ccn2c1=O (stereo not shown) [Compound I-21, 7-(6-(3,3-difluoropyrrolidine-1-carbonyl)-1,1a,2,7b-tetrahydro-3H-cyclopropa[c][1,8]naphthyridin-3-yl)-2-methyl-[1,2,4]triazolo[4,3-a]pyridin-3(2H)-one] | 4.95 nM | 2.3
Cn1nc2cc(N3CC4CC4c4cc(C(=O)N5CCOCC5)cnc43)ccn2c1=O (stereo not shown) [Compound I-22, 2-methyl-7-(6-(morpholine-4-carbonyl)-1,1a,2,7b-tetrahydro-3H-cyclopropa[c][1,8]naphthyridin-3-yl)-[1,2,4]triazolo[4,3-a]pyridin-3(2H)-one] | 10.2 nM | 
Cn1nc2cc(N3CC4CC4c4cc(C(=O)N5CCCC(C(F)F)C5)cnc43)ccn2c1=O (stereo not shown) [Compound I-23, 7-(6-(3-(difluoromethyl)piperidine-1-carbonyl)-1,1a,2,7b-tetrahydro-3H-cyclopropa[c][1,8]naphthyridin-3-yl)-2-methyl-[1,2,4]triazolo[4,3-a]pyridin-3(2H)-one] | 4.26 nM | 2.93
Cn1nc2cc(N3CC4CC4c4cc(C(=O)N5CCCC(F)(F)C5)cnc43)ccn2c1=O (stereo not shown) [Compound I-24, 7-(6-(3,3-difluoropiperidine-1-carbonyl)-1,1a,2,7b-tetrahydro-3H-cyclopropa[c][1,8]naphthyridin-3-yl)-2-methyl-[1,2,4]triazolo[4,3-a]pyridin-3(2H)-one] | 4.23 nM | 2.95
[2H]C([2H])([2H])n1nc2cc(N3CC4CC4c4cc(C(=O)N5CCC(F)(F)CC5)cnc43)ccn2c1=O (stereo not shown) [Compound I-25, 7-(6-(4,4-difluoropiperidine-1-carbonyl)-1,1a,2,7b-tetrahydro-3H-cyclopropa[c][1,8]naphthyridin-3-yl)-2-(methyl-d3)-[1,2,4]triazolo[4,3-a]pyridin-3(2H)-one] | 2.59 nM | 
Cn1nc2cc(N3CC4CC4c4cc(C(=O)N5CCCC(C(F)(F)F)C5)cnc43)ccn2c1=O (stereo not shown) [Compound I-26, 2-methyl-7-(6-(3-(trifluoromethyl)piperidine-1-carbonyl)-1,1a,2,7b-tetrahydro-3H-cyclopropa[c] [1,8]naphthyridin-3-yl)-[1,2,4]triazolo[4,3-a]pyridin-3(2H)-one] | 9.9 nM | 4.82
Cn1nc2cc(N3CC4CC4c4cc(C(=O)N5CCCC(F)C5)cnc43)ccn2c1=O (stereo not shown) [Compound I-27, 7-(6-(3-fluoropiperidine-1-carbonyl)-1,1a,2,7b-tetrahydro-3H-cyclopropa[c][1,8]naphthyridin-3-yl)-2-methyl-[1,2,4]triazolo[4,3-a]pyridin-3(2H)-one] | 5.7 nM | 2.60
Cn1nc2cc(N3CC4CC4c4cc(C(=O)N5CC6CC6C5)cnc43)ccn2c1=O (stereo not shown) [Compound I-29, 7-(6-(3-azabicyclo[3.1.0]hexane-3-carbonyl)-1,1a,2,7b-tetrahydro-3H-cyclopropa[c][1,8]naphthyridin-3-yl)-2-methyl-[1,2,4]triazolo[4,3-a]pyridin-3(2H)-one] | 5.3 nM | 2.3
